Broadly, the IC50 is the concentration needed to halve the response being measured.

In one assay the test system is ischemic neocortex. To be noted: applied directly to the surfaces of ischemic neocortex; cited from earlier work.
The target in another assay is T1, Human Calpain I (Homo sapiens, UniProt P07384).
T1 construct: Calpain I was purified from human erythrocytes; from tissue; host or cells: human erythrocytes
T1 sequence (P07384 1-714): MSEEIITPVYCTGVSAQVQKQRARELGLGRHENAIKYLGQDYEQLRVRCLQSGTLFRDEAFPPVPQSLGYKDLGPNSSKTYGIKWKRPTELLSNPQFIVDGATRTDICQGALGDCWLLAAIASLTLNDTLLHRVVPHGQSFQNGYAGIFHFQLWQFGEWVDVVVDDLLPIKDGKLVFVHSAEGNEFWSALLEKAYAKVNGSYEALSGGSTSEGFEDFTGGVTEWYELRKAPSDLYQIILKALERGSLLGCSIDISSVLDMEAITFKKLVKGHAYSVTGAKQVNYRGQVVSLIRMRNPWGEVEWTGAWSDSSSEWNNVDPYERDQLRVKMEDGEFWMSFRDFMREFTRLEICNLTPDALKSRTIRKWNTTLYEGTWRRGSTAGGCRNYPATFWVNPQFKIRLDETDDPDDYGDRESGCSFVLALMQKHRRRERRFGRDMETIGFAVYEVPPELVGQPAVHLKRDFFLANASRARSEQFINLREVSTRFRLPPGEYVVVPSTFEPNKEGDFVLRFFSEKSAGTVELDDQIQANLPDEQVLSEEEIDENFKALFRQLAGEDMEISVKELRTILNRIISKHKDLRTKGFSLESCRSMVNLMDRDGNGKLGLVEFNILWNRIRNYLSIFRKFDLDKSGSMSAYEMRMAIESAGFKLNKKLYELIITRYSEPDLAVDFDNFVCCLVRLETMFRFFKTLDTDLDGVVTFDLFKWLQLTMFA
T1 sequence (P04632 1-268 partner): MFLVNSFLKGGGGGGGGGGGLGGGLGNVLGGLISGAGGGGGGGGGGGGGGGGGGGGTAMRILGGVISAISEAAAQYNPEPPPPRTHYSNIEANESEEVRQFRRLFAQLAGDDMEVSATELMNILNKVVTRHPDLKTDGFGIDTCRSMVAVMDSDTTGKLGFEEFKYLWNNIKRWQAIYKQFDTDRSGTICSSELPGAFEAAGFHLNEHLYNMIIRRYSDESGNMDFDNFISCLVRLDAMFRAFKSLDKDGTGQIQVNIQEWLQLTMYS
The assay can be described thus: Calpain I activity, casein substrate, Coomassie microplate assay. It is filed as biochemical. The following applies: for IC50: casein 0.5 mg/mL, pH 7.4, 25° C., 60 minutes (Table I). How it is done:
(§1) Assay of calpain activity: Calpain I was purified from human erythrocytes as described by Wang K K W, Roufogalis B D, and Villalobo A, Arch Biochem Biophys 1988;267: 317-327. Calpain activity was assayed in a 96-well microplate format (Buroker-Kilgore M and Wang K K W, Anal Bio Chem 1993;208: 387-392). In 250 μL of reaction mixture, substrate casein (0.5 mg/mL) was incubated with 0.01 unit (80-120 ng) calpain I, 20 mM dithiothreitol (DTT), 50 mM Tris-HCl (pH 7.4 at 25° C.) and 4 mM CaCl2 at 25° C. for 60 minutes. Two 100-μL aliquots were taken for Coomassie blue G250 binding analysis to quantify the remaining casein.
(§2) Compound concentrations that cause 50% inhibition (IC50) are as shown (Table I). The second rate of inactivation of calpain I for 2 compounds are also shown.
(§3) Selectivity of α-substituted Hydrazides: Calpain I and II were assayed as described in Example 1. One to 2 ng papain (papaya latex, Sigma, P3125), 1.25 μg trypsin (bovine pancreas, Sigma, T8003), 5 μg thermolysin (Bacillus thermoproteolyticus, Sigma, P1512) were assayed using 0.5 mg/mL casein as substrate in the microplate format (250 μL reaction volume), essentially a described by Buroker-Kilgore, M. and Wang K K W, Anal Biochem 1993;208: 387-392. Cathepsin B (0.002 unit, bovine spleen) was assayed with 50 mM MES (pH 5.5), 100 μM carbobenzoxy-Arg-Arg-4-methoxy-beta-naphthlamide (Cbz-Arg-Arg-MNA), inhibitor, and 2 mM DTT in 200 μL for 60 minutes at room temperature. Fifty-microliter aliquots were transferred to a fluorescence-compatible plate and then read with a Perkin-Elmer fluorometer LS-50B (excitation 340 nm and emission 425 nm). Calcineurin (bovine brain, Sigma) (5 μg, 0.8 unit) was assayed with 10 mM p-nitrophenyl phosphate in 1 mM DTT, 1 mM CaCl2, 1 mM MnCl2, […] calmodulin (CaM, if added), and 50 mM Tris-HCl (pH 7.4) at 25° C. for 60 minutes or more. Production of p-nitrophenol was monitored at 405 nm. Inhibition of these proteases are presented as IC50.

Assay [1] relates to Spectrin Breakdown in Human Leukemic Molt-4 cells. The assay can be described thus: Cell-based calpain assay: spectrin breakdown in Molt-4 cells treated with calcium ionophore A23187. The following applies: 1 hour preincubation, 15 μM A23187, 90 minutes, read-out: IC50 for inhibition of spectrin breakdown (145 kD fragment formation). How it is done: Calpain inhibitor was added to the wells if desired and preincubated for 1 hour. […] The cells were then lysed with 2% (w/v) SDS, 5 mM EGTA, 5 mM EDTA, 150 mM NaCl, 0.5 mM PMSF, 10 μg/mL AEBSF, 5 μg/mL leupeptin, 10 μg/mL pepstatin, 10 μg/mL TLCK, 10 μg/mL TPCK, and 20 mM Tris-HCl (pH 7.4) at room temperature for 5 to 10 minutes. One hundred microliters of 100% (w/v) TCA was added and total protein precipitate was collected by microcentrifugation. The final pellets were neutralized with Tris base. Protein samples (50 μg) were run on SDS-PAGE with the Tris-glycine running buffer system and transferred onto a PVDF membrane. The blots were probed with an anti-spectrin (nonerythroid) antibody and a second antibody with alkaline phosphatase conjugate. The blots were developed with nitro blue tetrazolium and 5-bromo-4-chloro-3-indolyl-phosphate.

A further assay has as its target T2, Human Calpain II (Homo sapiens, UniProt P17655).
T2 sequence (P17655 1-700): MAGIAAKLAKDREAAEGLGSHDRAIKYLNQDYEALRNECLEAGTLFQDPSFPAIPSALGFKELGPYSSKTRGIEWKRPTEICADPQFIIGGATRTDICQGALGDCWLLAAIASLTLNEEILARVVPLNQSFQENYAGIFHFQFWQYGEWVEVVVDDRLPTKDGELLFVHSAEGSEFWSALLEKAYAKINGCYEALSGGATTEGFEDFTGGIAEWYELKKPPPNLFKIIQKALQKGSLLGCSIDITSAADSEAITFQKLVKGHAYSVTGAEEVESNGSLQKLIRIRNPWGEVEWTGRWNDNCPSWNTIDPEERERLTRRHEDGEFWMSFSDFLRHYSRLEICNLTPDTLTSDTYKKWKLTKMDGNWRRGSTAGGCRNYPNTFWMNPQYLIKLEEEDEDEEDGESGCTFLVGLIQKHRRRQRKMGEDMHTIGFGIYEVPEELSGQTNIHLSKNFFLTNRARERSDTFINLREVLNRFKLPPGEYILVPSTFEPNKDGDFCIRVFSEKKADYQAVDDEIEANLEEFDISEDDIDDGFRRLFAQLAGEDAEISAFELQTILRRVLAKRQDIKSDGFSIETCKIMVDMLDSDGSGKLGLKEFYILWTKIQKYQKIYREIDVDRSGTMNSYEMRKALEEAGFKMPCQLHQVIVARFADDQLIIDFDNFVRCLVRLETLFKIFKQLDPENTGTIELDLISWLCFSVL
T2 sequence (P04632 1-268 partner): T1 sequence (P04632 1-268 partner)
The assay can be described thus: Calpain II activity, casein substrate, Coomassie microplate assay. It is filed as biochemical. The following applies: casein 0.5 mg/mL (Table I). How it is done: as §1, §2, §3

Another assay relates to cataract. The following applies: whole animal; cited from earlier work.
Assay [2] deals with acute myocardiac infraction in dogs. To be noted: coronary reperfusion after acute myocardiac infraction; cited from earlier work.
For the next assay, the system named is restenosis. To be noted: in vivo; cited from earlier work.
For a further assay, the system named is aggregin. To be noted: cited from earlier work.
Another assay has as its system platelet. The following applies: cited from earlier work.

Square brackets hold non-standard residues; d marks the D form. Ends that are not written are not given here. Peptide text beside a SMILES is read from it. Nle = CCCC[C@H](N)C(=O)O

As for `CCNC(=O)C(=O)C(CC)NC(=O)C(CC(C)C)NC(=O)OCc1ccccc1` (stereo not drawn) [AK275], the “Size of the expected infarct” value with ischemic neocortex is “dramatically and unequivocally reduce the size of the expected infarct”.

As to `O=C(CBr)NN=c1[nH]c2ccccc2n(-c2ccccc2)c1=O` [Example 4, 2-Bromo-acetic acid (3-oxo-4-phenyl-3,4-dihydro-1H-quinoxalin-2-ylidene)-hydrazide], the IC50 on Human Calpain I worked out at 0.697 µM; in [1], 25 µM; on Human Calpain II, 0.574 µM.

For `O=C(CCl)NN=c1[nH]c2ccccc2n(-c2ccc(Cl)cc2)c1=O` [Example 9, 2-Chloro-acetic acid [4-(4-chloro-phenyl)-3-oxo-3,4-dihydro-1H-quinoxalin-2-ylidene]-hydrazide], at Human Calpain I, the “Ki/[I] Calpain I (second rate of inactivation)” value stood at 63.7 M⁻¹ s⁻¹. In addition, the IC50 is 0.486 µM against Human Calpain I, 15 µM in assay [1] and 0.158 µM at Human Calpain II.

Regarding `Cn1c(=O)c(=NNC(=O)CCl)[nH]c2ccccc21` [Example 14, 2-Chloro-acetic acid (4-methyl-3-oxo-3,4-dihydro-1H-quinoxalin-3-ylidene)-hydrazide], the IC50 against Human Calpain I turned out to be 8.28 µM; on Human Calpain II it was 10.8 µM.

Take `CC(C)C[C@H](NC(=O)[C@H]1O[C@@H]1C(=O)O)C(=O)NCCCCN=C(N)N` [Example E64]: the “Rate of cataract formation” value in the assay on cataract is on record as “reduce the rate of cataract formation”.

As to `CC(C)CCNC(=O)[C@H](CC(C)C)NC(=O)[C@H]1O[C@@H]1C(=O)O` [Example E64c], the Size of infarct result in assay [2] was “significantly reduce the size of infract”.

With `CCCC[C@@H](C=O)NC(=O)[C@H](CC(C)C)NC(=O)[C@H](CC(C)C)NC(C)=O` [calpain inhibitor I] (Ac-Leu-Leu-[Nle]-aldehyde), the Restenosis entry in the assay on restenosis is given as “can inhibit restenosis”.

On to “Phe-Gln-Val-Val-Cys(3-nitro-2-thiopyridine)-Gly-NH2 (FQVVC(3‑nitro‑2‑thiopyridine)G-NH2)”, for which, in the assay with aggregin, the Aggregin breakdown entry is “blocked aggregin breakdown”. The Platelet aggregation entry with platelet is “blocked aggregin breakdown and platelet aggregation”.

The values are drawn from patent US5679680A, “α-substituted hydrazides having calpain inhibitory activity” (Warner-Lambert Company, priority 1995, dated 1997).
